Legend:
[1] = tested on: diet-induced obese C57BL/6NTac mice; assay: 7 day oral weight loss study in diet-induced obese mice (Example 5); type: in vivo; conditions: oral 1.0 mg/kg once a day for 7 days
Procedure: A weight loss study was conducted in obese mice. The mice in this study were not genetically obese, but prior to and during the study, obesity was induced by a high-fat diet. Twelve week-old C57BL/6NTac mice, maintained on a 60% fat diet prior to and during the study, were separated into seven groups, eight animals per group. Average body weight of the mice was approximately 47 g at the start of the study.
Each of six groups was orally administered 1.0 mg/kg of a compound ([…] compounds B. C, D, E, F and G as disclosed herein), in 10% gelucire in deoinised water. Each of these six groups was administered a different compound. One group was orally administered fumagillin at 1.0 mg/kg (group 201) in 10% gelucire in deoinised water, and one group was administered 10% gelucire in deoinised water (vehicle). Mice received administrations once a day for 7 days.
(Data analyzed by ANCOVA with body weight on Day 1 as covariate followed by multiple tests against vehicle group: *p<0.05; **p<0.01, ***p<0.001.)

[2] = tested on: High fat diet-fed C57BL/6 mice; assay: 14 day body weight and food intake study in high fat diet-fed mice; type: in vivo
Procedure: High fat diet-fed C57BL/6 mice were treated with 1 mg/kg of the MetAP2 inhibitor fumagillin (ZGN-201, squares) or vehicle (diamonds) for 14 days (FIG. 10). Body weights (left panel) were determined daily, while food intake (right panel) was assessed every other day by measuring the food consumed by each cage of three mice over the two day period. Data shown in FIG. 10 are means±SEM, n=9 animals. […] First, during the initial two to three days of treatment, no overt changes in food intake or body weight are observed. During this time period key changes in MetAP2 substrates occur, including glyceraldehyde-3-phosphate dehydrogenase and thioredoxin (data not shown). Second, the animals enter a period of rapid weight loss that proceeds until essentially all excess fat deposits are consumed. During this second period, fat oxidation is enhanced and food intake is inhibited.
Weight loss following treatment with therapeutically relevant doses of MetAP2 inhibitors stops once animals attain a normal body composition. […] This third phase can be maintained indefinitely provided the drug is continued (see FIG. 10), or presumably can be maintained in practice through other complementary pharmacologic, dietary, or lifestyle interventions.

[3] = tested on: TXN in Cos-1 and 293T cells; assay: FLAG-tagged TXN expression (gel) in transfected Cos-1 and 293T cells; type: cell-based
Procedure: EC50 of fumagillin to increase TXN levels is <10 nM.

[4] = tested on: C57BL/6 mice conditioned on a high-fat diet; assay: 28 day oral gavage, fat and lean tissue change in high fat diet mice; type: in vivo; conditions: oral gavage 0.1 or 0.3 mg/kg for 28 days
Procedure: C57BL/6 mice were conditioned on a low-fat diet (LF), a high fat diet (HF), or a high-fat diet and treated with fumagillin (ZGN-201) administered by oral gavage at doses of 0.1 or 0.3 mg/kg for 28 days. […] To determine whether the weight loss resulted from loss of fat or loss of lean tissue, the percentage change in fat tissue and lean tissue was determined for LF mice, HF mice, HF mice treated with 0.1 mg/kg fumagillin, and HF mice treated with 0.3 mg/kg fumagillin.
Upon histological examination, the studies of treated obese mice show no effect on growth of new blood vessels in growing fat depots and no effect on blood vessel size or density when compared to animals in which weight loss has been induced by simple energy (food) restriction.

[5] = tested on: Thioredoxin-1 (TXN) in B16F10 cells; assay: N-terminal chymotryptic fragments of TXN by LC/MS in fumagillin-treated B16F10 cells; type: cell-based
Procedure: B16F10 cells were treated with increasing concentrations of fumagillin. N-terminal chymotryptic fragments of TXN were measured by liquid chromatography/mass spectrometry (LC/MS). […] The EC50 of fumagillin to increase Met-TXN acetylated Met-TXN levels is <10 nM.

[6] = tested on: C57BL/6 mice conditioned on a high fat diet; assay: Oral gavage for 10 days in high fat diet mice; type: in vivo; conditions: oral gavage 0.3 or 3 mg/kg daily for 10 days
Source text: (§1) Oral administration of the MetAP2 inhibitor fumagillin causes an increase in circulating ketone bodies, as measured by concentration of beta hydroxybutyrate, which indicates an increase in the breakdown of stored fat.

[7] = tested on: C57BL/6 mice conditioned on a high fat diet; assay: Diet admixture for 250 days in high fat diet mice; type: in vivo
Procedure: as §1
In addition to showing an increase in beta hydroxybutyrate concentration, C57BL/6 mice conditioned on a high fat diet and treated with fumagillin (ZGN-201) as a diet admixture (1 mg/kg daily for 250 days) also experienced a reduction in body fat by approximately 40 percent (FIG. 6). Once attaining the maximum weight reduction, mice treated daily with 1 mg/kg fumagillin maintained a weight that was 25% less than that of age-matched mice maintained on normal mouse chow diet (lean mice, FIG. 6) for the duration of the experiment.
Adipose tissue in mice fed a high-fat diet show distinctive crown-like structures not seen in lean mice. These crown-like structures were also absent from the adipose tissue of fumagillin-treated mice.

[8] = diet admixture 1 mg/kg daily for 250 days

CO[C@@H]1[C@H](OC(=O)NCCC2CCCN2C)CC[C@]2(CO2)[C@H]1[C@@]1(C)O[C@@H]1CC=C(C)C (stereo partly drawn) [C]
body weight change over the course of the 8 days [1]: lost weight

CO[C@@H]1[C@H](OC(=O)N[C@@H](C(=O)NCCN2CCCC2)C(C)C)CC[C@]2(CO2)[C@H]1[C@@]1(C)O[C@@H]1CC=C(C)C [E]
body weight change over the course of the 8 days [1]: lost weight

CO[C@@H]1[C@H](OC(=O)N[C@@H](C(N)=O)C(C)C)CC[C@]2(CO2)[C@H]1[C@@]1(C)O[C@@H]1CC=C(C)C [B]
body weight change over the course of the 8 days [1]: lost weight

CO[C@@H]1[C@H](OC(=O)/C=C/C=C/C=C/C=C/C(=O)O)CC[C@]2(CO2)[C@H]1[C@@]1(C)O[C@@H]1CC=C(C)C [fumagillin]
food intake during period of rapid weight loss ([2]; 1 mg/kg for 14 days, second phase): inhibited
food intake after weight loss nadir ([2]; 1 mg/kg, third phase): returns to normal levels
expression of TXN ([3]; Cos-1 and 293T cells transfected with FLAG-tagged TXN): significantly increased
EC50 ([3]; gel, FIG. 4, read-out: EC50 to increase TXN levels): < 10 nM
body weight [4]: reduction in body weight down to the level of low fat fed mice
reduction in fat [4]: 40-50%
reduction in lean tissue [4]: 5-10%
accumulation of N-acetyl TXN(1-4) ([5]; LC/MS): significant accumulation
cellular level of TXN containing an intact N-terminal methionine [TXN(1-4)] ([5]; LC/MS): significantly increased
EC50 ([5]; Mus musculus, B16-F10, read-out: EC50 to increase Met-TXN acetylated Met-TXN levels): < 10 nM
beta hydroxybutyrate concentrations [6]: increase
free fatty acid concentration [6]: without an increase
body weight change over the course of the 8 days [1]: lost the most weight
maintained weight less than that of age-matched lean mice on normal chow ([7]; 1 mg/kg daily, after maximum weight reduction): 25%
adipocyte size ([7]; 1 mg/kg, 250 days): more similar to that of age-matched lean mice
crown-like structures in adipose tissue ([7]; 1 mg/kg, 250 days): absent
fasted glucose and insulin levels, insulin-glucose product ([7]; 1 mg/kg, 250 days): more similar to that of age-matched lean mice
retroperitoneal fat pad weight ([7]; 1 mg/kg, 250 days): more similar to that of age-matched lean mice
size and appearance of epididymal fat, peri-renal fat and liver ([7]; 1 mg/kg, 250 days): more similar to that of age-matched lean mice
hydroxybutyrate concentration at longer time points [7, 8]: Increased hydroxybutyrate concentration persisted
reduction in body fat [7, 8]: approximately 40%

— US8367721B2, “Methods of treating an overweight or obese subject” (Zafgen, Inc., priority 2008, dated 2013)
